From patent publication US11470844B2, “Vespidae wasp repellent” (KINP CO., LTD, priority 2015, dated 2022)

How the values were obtained:
Type in all cases: in vivo
Vespa mandarinia worker = experiment: Black ball nest disturbance, Experiment 1 (ball with adsorbed alarm pheromone); details: for total number of workers alighting on the black ball for attack: alarm pheromone adsorbed ball
Protocol: The experiment was conducted with utilizing a nest of Vespa mandarinia found in Kagawa Prefecture Kinbuchi Forest Park in Takamatsu City Kagawa Prefecture on Oct. 24, 2014. Since the nest was built in the ground, the nest could not be found except for the entrance thereof.
A vinyl ball of which diameter was 13 cm and which was coated with black lacquer was hung on the tip of a fishing rod having a length of 11 m. Hereinafter, the ball was abbreviated as “black ball”. After distilled water was sprayed on the entire surface, the vicinity of the nest entrance was disturbed by using the black ball. Specifically, the nest was disturbed by vibrating the black ball about 50 cm before the nest entrance in the air for about 10 seconds or vibrating the black ball in contact with the nest entrance for about 10 seconds. After the black ball was vibrated in the above-described conditions for about 10 seconds, the black ball was moved to the air of about 1 m before the nest entrance, and the behavior of the Vespa mandarinia worker against the black ball was shot and recorded for 2 minutes with a video camera. In the above condition, both of the black balls used in both conditions were attacked by the Vespa mandarinia workers and it is considered that the alarm pheromone was adsorbed on the black balls. Then, the black ball was kept away from the nest so that all the Vespa mandarinia workers were separated, 2-phenylethanol was sprayed on the entire surface, and the behavior of the workers against the black ball was similarly observed. The total number of workers alighting on the surface of the hemispherical side observable by the video image for attack during the vibration of the black ball was counted.

[1] = tested on: Polistes jokahamae jokahamae Radoszkowski worker group; experiment: Spray on worker group on nest surface
Protocol: (§1) The experiment involving a worker group of Polistes jokahamae jokahamae Radoszkowski on the exterior wall of a nest found in the campus of Faculty of Agriculture, Kochi University, located on 200 Otsu, Monobe, Nankoku City, Kochi Prefecture, was conducted on Jul. 13, 2015, and the experiment involving a worker of P. jokahamae jokahamae Radoszkowski which collected sap bled from sucking mark by adult Cryptotympana facialis of Zelkova tree stem planted in a private house in Fuseishi-cho, Takamatsu City, Kagawa Prefecture was conducted on July 19 to 22, 2015. In addition, the experiment involving a worker group of P. chinensis antennalis Pe'rez on the exterior wall of a nest found on a branch of a cheesewood planted at a bank of Noda pond located at Fuseishi-cho, Takamatsu City, Kagawa Prefecture was conducted on Jul. 30, 2015.
(§2) The experiment was conducted in accordance with the above-described Example 1(1) involving a Vespa mandarinia worker, distilled water as a control example spray and benzyl alcohol as a test liquid example spray were sequentially sprayed on a test object group or a test object worker by using a sprayer, and the behavior from immediately after spraying up to 1 minute later was respectively recorded.

[2] = tested on: P. chinensis antennalis Pe'rez worker group; experiment: Spray on worker group on nest; details: 9:02, 1 minute after spraying benzyl alcohol; 32 workers before
Protocol: as §1
as §2, with “recorded. […]” for “recorded.”

SMILES	total number of workers alighting on the black ball for attack (Vespa mandarinia worker; Vibration in contact with nest entrance)	total number of workers alighting on the black ball for attack (Vespa mandarinia worker; Vibration in the air before nest entrance)	distance from the surface of the black ball at which workers changed direction and flew away (Vespa mandarinia worker; in vivo)	Number of P. jokahamae jokahamae Radoszkowski on nest surface ([1]; 10:02, 1 minute after spraying benzyl alcohol once, 11 workers before)	time within which all workers flew away from the nest after spraying ([1]; group of 11 workers)	Number of P. chinensis antennalis Pe'rez on nest [2]
OCCc1ccccc1 [2-Phenylethanol, 2-phenylethanol]	0	0	about 10 cm			
OCc1ccccc1 [Benzyl alcohol, benzyl alcohol]				0	≤ 10 s	0
